Results published in PubChem BioAssay (NCI).
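Interpolation was linear, between the two tested concentrations surrounding the appropriate level; five concentrations were tested over 48 hours in 96-well plates. GI50 is the concentration that inhibits growth by half. Definition used: TGI = concentration required for complete inhibition of growth.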 Where a SMILES comes first, the peptide text is derived from it. [ ]: non-standard residue; d: D form. The star is where a group is joined. Benzoyl(4-OMe) = COc1ccc(C(=O)*)cc1; 2Thi = N[CH](Cc1cccs1)C(=O)O

Columns and labels:
Assay in all cases: DTP human tumour cell line panel, 48 h
UACC-257 melanoma = system: UACC-257 melanoma
BT-549 breast = system: BT-549 breast
NCI-H23 lung = system: NCI-H23 lung
NCI-H226 lung = system: NCI-H226 lung
HCT-116 colon = system: HCT-116 colon
PC-3 prostate = system: PC-3 prostate
HCC-2998 colon = system: HCC-2998 colon
SF-268 CNS = system: SF-268 CNS
MALME-3M melanoma = system: MALME-3M melanoma
SNB-75 CNS = system: SNB-75 CNS
HCT-15 colon = system: HCT-15 colon
ACHN renal = system: ACHN renal
OVCAR-8 ovarian = system: OVCAR-8 ovarian
HOP-92 NSCLC = system: HOP-92 NSCLC
SF-539 CNS = system: SF-539 CNS
KM12 colon = system: KM12 colon
OVCAR-3 ovarian = system: OVCAR-3 ovarian
A498 renal = system: A498 renal
MDA-MB-435 = system: MDA-MB-435
U251 CNS = system: U251 CNS
M14 melanoma = system: M14 melanoma
SK-MEL-2 melanoma = system: SK-MEL-2 melanoma
MCF7 breast = system: MCF7 breast
DU-145 prostate = system: DU-145 prostate
LOX IMVI melanoma = system: LOX IMVI melanoma
SNB-19 CNS = system: SNB-19 CNS
OVCAR-5 ovarian = system: OVCAR-5 ovarian
CCRF-CEM leukemia = system: CCRF-CEM leukemia
SN12C renal = system: SN12C renal
COLO 205 colon = system: COLO 205 colon
UACC-62 melanoma = system: UACC-62 melanoma
RPMI-8226 leukemia = system: RPMI-8226 leukemia
CAKI-1 renal = system: CAKI-1 renal
HOP-62 NSCLC = system: HOP-62 NSCLC
MDA-MB-231 breast = system: MDA-MB-231 breast
TK-10 renal = system: TK-10 renal
OVCAR-4 ovarian = system: OVCAR-4 ovarian
NCI/ADR-RES ovarian = system: NCI/ADR-RES ovarian
HT29 colon = system: HT29 colon
HS 578T breast = system: HS 578T breast
UO-31 renal = system: UO-31 renal
HL-60(TB) leukemia = system: HL-60(TB) leukemia
EKVX NSCLC = system: EKVX NSCLC
T-47D breast = system: T-47D breast
SK-MEL-5 melanoma = system: SK-MEL-5 melanoma
A549 NSCLC = system: A549 NSCLC
SF-295 CNS = system: SF-295 CNS
MOLT-4 leukemia = system: MOLT-4 leukemia
SK-OV-3 ovarian = system: SK-OV-3 ovarian
SR leukemia = system: SR leukemia
RXF 393 renal = system: RXF 393 renal
SK-MEL-28 melanoma = system: SK-MEL-28 melanoma
K-562 leukemia = system: K-562 leukemia
SW-620 colon = system: SW-620 colon
786-0 renal = system: 786-0 renal
NCI-H522 lung = system: NCI-H522 lung
NCI-H460 lung = system: NCI-H460 lung
IGROV1 ovarian = system: IGROV1 ovarian

`CCC(C)C(NC(=O)C(Cc1cccs1)NC(=O)C(CC(C)C)NC(=O)C(CC(C)C)NC(=O)C(CCCCN)NC(=O)C(CCCN=C(N)N)NC(=O)c1ccc(OC)cc1)C(=O)NC(CC(C)C)C(N)=O` (configuration not stated) ({Benzoyl(4-OMe)}-RKLL[2Thi]IL-NH2; configuration not given here) gave a TGI (UACC-257 melanoma) greater than 100 µM, a TGI (BT-549 breast) greater than 100 µM and a TGI (NCI-H23 lung) greater than 100 µM. For the same compound, the TGI (NCI-H226 lung) was greater than 100 µM.

With `CC(=O)c1sc2c(c1OC(=O)c1ccc(Cl)cc1)c(=O)n(-c1ccccc1)c(=S)n2-c1ccccc1` the TGI (HCT-116 colon) was 25.2 µM, the TGI (PC-3 prostate) was greater than 100 µM and the TGI (HCC-2998 colon) was greater than 58.3 µM. For the same compound, the TGI (SF-268 CNS) was greater than 100 µM, the TGI (UACC-257 melanoma) was 38.4 µM and the TGI (MALME-3M melanoma) was 4.51 µM. The TGI (SNB-75 CNS) was 23.3 µM, the TGI (HCT-15 colon) was 25.8 µM and the TGI (ACHN renal) was 15.7 µM. For the same compound, the TGI (OVCAR-8 ovarian) was 15.1 µM, the TGI (HOP-92 NSCLC) was 15.8 µM and the TGI (SF-539 CNS) was 5.06 µM. It also gave a TGI (KM12 colon) of 44.7 µM, a TGI (OVCAR-3 ovarian) of 41.6 µM and a TGI (A498 renal) of 3.64 µM. For the same compound, the TGI (MDA-MB-435) was greater than 36.8 µM, the TGI (U251 CNS) was 15 µM and the TGI (M14 melanoma) was 5.48 µM. For the same compound, the TGI (SK-MEL-2 melanoma) was 3.7 µM, the TGI (MCF7 breast) was 71.9 µM and the TGI (DU-145 prostate) was greater than 100 µM. The TGI (LOX IMVI melanoma) was 6.92 µM, the TGI (SNB-19 CNS) was greater than 42.9 µM and the TGI (OVCAR-5 ovarian) was 13.2 µM. It also gave a TGI (CCRF-CEM leukemia) of 7.41 µM, a TGI (SN12C renal) of 6.43 µM and a TGI (COLO 205 colon) of 13.8 µM. The TGI (NCI-H23 lung) was greater than 68.6 µM, the TGI (UACC-62 melanoma) was 42.6 µM and the TGI (RPMI-8226 leukemia) was 8.56 µM. For the same compound, the TGI (CAKI-1 renal) was greater than 47 µM, the TGI (HOP-62 NSCLC) was 24.1 µM and the TGI (MDA-MB-231 breast) was 19.2 µM. For the same compound, the TGI (TK-10 renal) was 87.4 µM, the TGI (OVCAR-4 ovarian) was 65.5 µM and the TGI (NCI-H226 lung) was 5.56 µM. For the same compound, the TGI (NCI/ADR-RES ovarian) was 23 µM, the TGI (HT29 colon) was 8.95 µM and the TGI (HS 578T breast) was 9.72 µM. The TGI (UO-31 renal) was 9.24 µM, the TGI (HL-60(TB) leukemia) was 30.6 µM and the TGI (EKVX NSCLC) was 77.8 µM. For the same compound, the TGI (T-47D breast) was greater than 69.4 µM, the TGI (SK-MEL-5 melanoma) was 7.61 µM and the TGI (A549 NSCLC) was greater than 76.1 µM. The TGI (SF-295 CNS) was 5.88 µM, the TGI (MOLT-4 leukemia) was 6.68 µM and the TGI (SK-OV-3 ovarian) was 7.03 µM. The TGI (SR leukemia) was 23.1 µM, the TGI (RXF 393 renal) was 5.91 µM and the TGI (SK-MEL-28 melanoma) was greater than 31.8 µM. It also gave a TGI (K-562 leukemia) of 38.4 µM, a TGI (SW-620 colon) of 70.7 µM and a TGI (786-0 renal) of 15.9 µM. It also gave a TGI (NCI-H522 lung) of 18.9 µM, a TGI (NCI-H460 lung) of 22.1 µM and a TGI (IGROV1 ovarian) of 37.8 µM.

For `N#Cc1c(-c2ccccc2)cc(-c2ccccc2)n(CC(=O)NO)c1=O`, the GI50 (HCT-116 colon) was 2.57 µM, the TGI (HCT-116 colon) was greater than 100 µM and the GI50 (PC-3 prostate) was 2.25 µM. For the same compound, the TGI (PC-3 prostate) was 14 µM, the GI50 (HCC-2998 colon) was 3.74 µM and the TGI (HCC-2998 colon) was 20.9 µM. It also gave a GI50 (SF-268 CNS) of 3.66 µM, a TGI (SF-268 CNS) of 94.3 µM and a GI50 (UACC-257 melanoma) of 10.8 µM. For the same compound, the TGI (UACC-257 melanoma) was 37.4 µM, the GI50 (MALME-3M melanoma) was 3 µM and the TGI (MALME-3M melanoma) was 27.3 µM. The GI50 (SNB-75 CNS) was 1.61 µM, the TGI (SNB-75 CNS) was 6.36 µM and the GI50 (HCT-15 colon) was 3.55 µM. The TGI (HCT-15 colon) was 28.8 µM, the GI50 (ACHN renal) was 1.09 µM and the TGI (ACHN renal) was greater than 100 µM. The GI50 (OVCAR-8 ovarian) was 8.02 µM, the TGI (OVCAR-8 ovarian) was greater than 100 µM and the GI50 (HOP-92 NSCLC) was 2.15 µM. For the same compound, the TGI (HOP-92 NSCLC) was 8.17 µM, the GI50 (SF-539 CNS) was 3.83 µM and the TGI (SF-539 CNS) was 25.7 µM. For the same compound, the GI50 (A498 renal) was 2.17 µM, the TGI (A498 renal) was 7.99 µM and the GI50 (MDA-MB-435) was 3.03 µM. It also gave a TGI (MDA-MB-435) greater than 100 µM, a GI50 (U251 CNS) of 4.91 µM and a TGI (U251 CNS) of 86.3 µM. The GI50 (M14 melanoma) was 4.16 µM, the TGI (M14 melanoma) was 19.1 µM and the GI50 (SK-MEL-2 melanoma) was 2.85 µM. For the same compound, the TGI (SK-MEL-2 melanoma) was 9.13 µM, the GI50 (MCF7 breast) was 1.45 µM and the TGI (MCF7 breast) was 3.82 µM. For the same compound, the GI50 (DU-145 prostate) was 6.37 µM, the TGI (DU-145 prostate) was greater than 100 µM and the GI50 (LOX IMVI melanoma) was 0.176 µM. It also gave a TGI (LOX IMVI melanoma) of 0.333 µM, a GI50 (SNB-19 CNS) of 7.09 µM and a TGI (SNB-19 CNS) of 73.3 µM. The GI50 (OVCAR-5 ovarian) was 11.1 µM, the TGI (OVCAR-5 ovarian) was greater than 100 µM and the GI50 (CCRF-CEM leukemia) was 0.491 µM. For the same compound, the TGI (CCRF-CEM leukemia) was 3.07 µM, the GI50 (SN12C renal) was 4.27 µM and the TGI (SN12C renal) was greater than 100 µM. The GI50 (COLO 205 colon) was 5.62 µM, the TGI (COLO 205 colon) was 72.3 µM and the GI50 (NCI-H23 lung) was 3.58 µM. It also gave a TGI (NCI-H23 lung) of 81.4 µM, a GI50 (UACC-62 melanoma) of 2.25 µM and a TGI (UACC-62 melanoma) of 6.01 µM. For the same compound, the GI50 (RPMI-8226 leukemia) was 1.35 µM, the TGI (RPMI-8226 leukemia) was 4.77 µM and the GI50 (CAKI-1 renal) was 3.4 µM. The TGI (CAKI-1 renal) was greater than 100 µM, the GI50 (HOP-62 NSCLC) was 6.99 µM and the TGI (HOP-62 NSCLC) was 58.3 µM. For the same compound, the GI50 (MDA-MB-231 breast) was 4.75 µM, the TGI (MDA-MB-231 breast) was 68 µM and the GI50 (TK-10 renal) was 5.92 µM. For the same compound, the TGI (TK-10 renal) was greater than 100 µM, the GI50 (OVCAR-4 ovarian) was 3.53 µM and the TGI (OVCAR-4 ovarian) was greater than 100 µM. For the same compound, the GI50 (NCI-H226 lung) was 13.7 µM, the TGI (NCI-H226 lung) was 57.5 µM and the GI50 (NCI/ADR-RES ovarian) was 3.41 µM. For the same compound, the TGI (NCI/ADR-RES ovarian) was greater than 100 µM, the GI50 (HT29 colon) was 3.07 µM and the TGI (HT29 colon) was 12.2 µM. For the same compound, the GI50 (HS 578T breast) was 2 µM, the TGI (HS 578T breast) was 7.15 µM and the GI50 (UO-31 renal) was 1.84 µM. The TGI (UO-31 renal) was 9.75 µM, the GI50 (EKVX NSCLC) was 3.45 µM and the TGI (EKVX NSCLC) was 97 µM. It also gave a GI50 (T-47D breast) of 1.41 µM, a TGI (T-47D breast) of 6.88 µM and a GI50 (SK-MEL-5 melanoma) of 1.93 µM. The TGI (SK-MEL-5 melanoma) was 4.71 µM, the GI50 (A549 NSCLC) was 4.57 µM and the TGI (A549 NSCLC) was greater than 100 µM. It also gave a GI50 (SF-295 CNS) of 7.47 µM, a TGI (SF-295 CNS) of 33.8 µM and a GI50 (MOLT-4 leukemia) of 1.7 µM. The TGI (MOLT-4 leukemia) was 4.92 µM, the GI50 (SK-OV-3 ovarian) was 6.24 µM and the TGI (SK-OV-3 ovarian) was 53.5 µM. It also gave a GI50 (SR leukemia) of 0.593 µM, a TGI (SR leukemia) of 4.48 µM and a GI50 (RXF 393 renal) of 1.61 µM. The TGI (RXF 393 renal) was 5.92 µM, the GI50 (SK-MEL-28 melanoma) was 6.7 µM and the TGI (SK-MEL-28 melanoma) was 77.4 µM. For the same compound, the GI50 (K-562 leukemia) was 1.8 µM, the TGI (K-562 leukemia) was 4.67 µM and the GI50 (SW-620 colon) was 8.87 µM. The TGI (SW-620 colon) was greater than 100 µM, the GI50 (786-0 renal) was 5.59 µM and the TGI (786-0 renal) was 28 µM. The GI50 (NCI-H522 lung) was 0.427 µM, the TGI (NCI-H522 lung) was 1.82 µM and the GI50 (NCI-H460 lung) was 3.02 µM. The TGI (NCI-H460 lung) was greater than 100 µM.
